Literature values as cited in patent US4729992A, “Cephalosporin esters, their production and use” (Tatsuo Chemical Ind., Ltd., priority 1984, dated 1988).

Key:
Conditions in all cases: Antimicrobial Agent and Chemotherapy 14, 557-568 (1978)
[1] = tested on: Proteus vulgaris
[2] = tested on: Staphylococcus aureus
[3] = tested on: Klebsiella pneumoniae
[4] = tested on: Proteus morganii
[5] = tested on: Escherichia coli
[6] = tested on: Proteus mirabilis

Measured: antibacterial activity

CN(C)CCn1nnnc1SCC1=C(C(=O)O)N2C(=O)[C@@H](NC(=O)Cc3csc(N)n3)[C@H]2SC1 [compound [II], 7β-[2-(2-aminothiazol-4-yl)acetamido]3-[[[1-(2-dimethylaminoethyl)-1H-tetrazol-5-yl]thio]methyl]ceph-3-em-4-carboxylic acid]
potent antibacterial activity: all assays above
